Measured values from patent US9598440B2, “Inhibitors of IRAK4 activity” (MERCK SHARP & DOHME CORP., priority 2012, dated 2017).

Biological target: IRAK4 (Homo sapiens (Human), UniProt Q9NWZ3)
Assay: Determination of IRAK4 kinase activity (IMAP fluorescence polarization, phosphorylation of fluorescent peptide substrate)
Type: biochemical
Conditions: 0.5 nM GST tagged IRAK4, 100 nM peptide substrate RP7030, 100 μM ATP, 30 minutes at 25° C.
Protocol: The kinase activity of IRAK4 is determined by its ability to catalyze the phosphorylation of a fluorescent polypeptide substrate. The extent of phosphorylation is measured using IMAP technology (Molecular Devices) where the phosphorylated fluorescent substrate binds to the large M(III)-based nanoparticles which reduces the rotational speed of the substrate and thus increases its fluorescent polarization (FP).
Procedure: A 20 μl reaction mixture contains 10 mM TriHCl, pH 7.2, 0.5 nM GST tagged IRAK4 (SignalChem), 100 nM fluorescent peptide substrate (RP7030, Molecular Devices), 100 μM ATP, 1 mM DTT, 1 mM MgCl2, and 0.01% Tween 20. The reaction is initiated by the addition of ATP. After incubation for 30 minutes at 25° C., 60 μl of Progressive IMAP Reagent (Molecular Devices) is added to stop the reaction. Change in RP7030's FP is determined by a FP reader (Analyst HT, LJL BioSystems). Analytical LCMS Conditions: • Condition A: Phenomenex Luna C18 (4.6×250 mm), 95:5 to 5:95 water:MeCN (0.05% TFA), over 10 min, hold 6 min. • Condition B: Agilent SBC (3.0×50 mm), solvent A: H20-0.1% TFA; • solvent B: ACN-0.1% TFA; GRADIENT TABLE: 0 min:10% B, 0.3 min: 10% B, 1.5 min: 95% B, 2.70 min: 95% B, 2.76 min: 10% B, stop time 3.60 min.

IRAK4, sequence (Q9NWZ3 whole entry): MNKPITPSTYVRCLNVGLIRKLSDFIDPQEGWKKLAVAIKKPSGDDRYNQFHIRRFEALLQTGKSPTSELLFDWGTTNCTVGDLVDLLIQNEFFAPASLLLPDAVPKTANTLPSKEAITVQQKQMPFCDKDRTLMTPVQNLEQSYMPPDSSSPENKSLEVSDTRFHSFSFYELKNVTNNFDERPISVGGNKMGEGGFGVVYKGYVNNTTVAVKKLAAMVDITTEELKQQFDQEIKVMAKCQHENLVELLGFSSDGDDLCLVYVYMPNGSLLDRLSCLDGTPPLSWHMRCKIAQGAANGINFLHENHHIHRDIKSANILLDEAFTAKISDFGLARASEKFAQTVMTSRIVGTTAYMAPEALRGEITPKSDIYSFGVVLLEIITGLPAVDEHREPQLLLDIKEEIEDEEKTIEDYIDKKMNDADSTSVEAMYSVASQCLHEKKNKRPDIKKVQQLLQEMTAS

## Cc1cc(Nc2cc(N[C@H]3C[C@@H](C(C)(C)O)[C@H](O)[C@@H]3O)c(-c3ccc4ccccc4n3)cn2)cc(C)n1 (stereo in doubt) [Example 164, (1S,2R,3 S,5R)-3-((2-((2,6-dimethylpyridin-4-yl)amino)-5-(quinolin-2-yl)pyridin-4-yl)amino)-5-(2-hydroxypropan-2-yl)cyclopentane-1,2-diol]
  IC50: 3 nM

## OC[C@H]1C[C@@H](Nc2nc(Nc3ccccc3)ncc2-c2nc3ccccc3s2)[C@H](O)[C@@H]1O [Example 1, (1R,2S,3R,5R)-3-((5-(benzo[d]thiazol-2-yl)-2-(phenylamino)pyrimidin-4-yl)amino)-5-(hydroxymethyl)cyclopentane-1,2-diol]
  IC50: 20 nM

## OC[C@H]1C[C@@H](Nc2nc(Nc3ccc(O)cc3)ncc2-c2nc3ccccc3s2)[C@H](O)[C@@H]1O [Example 2, (1R,2S,3R,5R)-3-((5-(benzo[d]thiazol-2-yl)-2-((4-hydroxyphenyl)amino)pyrimidin-4-yl)amino)-5-(hydroxymethyl)cyclopentane-1,2-diol]
  IC50: 5.8 nM

## OC[C@H]1C[C@@H](Nc2nc(Nc3cccc(O)c3)ncc2-c2nc3ccccc3s2)[C@H](O)[C@@H]1O [Example 3, (1R,2S,3R,5R)-3-((5-(benzo[d]thiazol-2-yl)-2-((3-hydroxyphenyl)amino)pyrimidin-4-yl)amino)-5-(hydroxymethyl)cyclopentane-1,2-diol]
  IC50: 12 nM

## COc1cccc(Nc2ncc(-c3nc4ccccc4s3)c(N[C@@H]3C[C@H](CO)[C@@H](O)[C@H]3O)n2)c1 [Example 4, (1R,2S,3R,5R)-3-((5-(benzo[d]thiazol-2-yl)-2-((3-methoxyphenyl)amino)pyrimidin-4-yl)amino)-5-(hydroxymethyl)cyclopentane-1,2-diol]
  IC50: 137 nM

## Nc1ncc(-c2nc3ccccc3o2)c(N[C@@H]2C[C@H](CO)[C@@H](O)[C@H]2O)n1 [Example 5, (1R,2S,3R,5R)-3-((2-amino-5-(benzo[d]oxazol-2-yl)pyrimidin-4-yl)amino)-5-(hydroxymethyl)cyclopentane-1,2-diol]
  IC50: 2560 nM

## OC[C@H]1C[C@@H](Nc2nc(Nc3ccnc(F)c3)ncc2-c2nc3ccccc3s2)[C@H](O)[C@@H]1O [Example 6, (1R,2S,3R,5R)-3-((5-(benzo[d]thiazol-2-yl)-2-((2-fluoropyridin-4-yl)amino)pyrimidin-4-yl)amino)-5-(hydroxymethyl)cyclopentane-1,2-diol]
  IC50: 2560 nM

## COc1cc(Nc2ncc(-c3nc4ccccc4s3)c(N[C@@H]3C[C@H](CO)[C@@H](O)[C@H]3O)n2)ccn1 [Example 7, (1R,2S,3R,5R)-3-((5-(benzo[d]thiazol-2-yl)-2-((2-methoxypyridin-4-yl)amino)pyrimidin-4-yl)amino)-5-(hydroxymethyl)cyclopentane-1,2-diol]
  IC50: 4.6 nM

## Cc1cnccc1Nc1ncc(-c2nc3ccccc3s2)c(N[C@@H]2C[C@H](CO)[C@@H](O)[C@H]2O)n1 [Example 8, (1R,2S,3R,5R)-3-((5-(benzo[d]thiazol-2-yl)-2-((3-methylpyridin-4-yl)amino)pyrimidin-4-yl)amino)-5-(hydroxymethyl)cyclopentane-1,2-diol]
  IC50: 516 nM

## Cc1cc(Nc2ncc(-c3nc4ccccc4s3)c(N[C@@H]3C[C@H](CO)[C@@H](O)[C@H]3O)n2)cc(C)n1 [Example 9, (1R,2S,3R,5R)-3-((5-(benzo[d]thiazol-2-yl)-2-((2,6-dimethylpyridin-4-yl)amino)pyrimidin-4-yl)amino)-5-(hydroxymethyl)cyclopentane-1,2-diol]
  IC50: 0.32 nM

## COc1ccc(Nc2ncc(-c3nc4ccccc4s3)c(N[C@@H]3C[C@H](CO)[C@@H](O)[C@H]3O)n2)cc1 [Example 10, (1R,2S,3R,5R)-3-((5-(benzo[d]thiazol-2-yl)-2-((4-methoxyphenyl)amino)pyrimidin-4-yl)amino)-5-(hydroxymethyl)cyclopentane-1,2-diol]
  IC50: 14 nM

## Nc1ncc(-c2nc(-c3ccccc3)cs2)c(N[C@@H]2C[C@H](CO)[C@@H](O)[C@H]2O)n1 [Example 11, (1R,2S,3R,5R)-3-((2-amino-5-(4-phenylthiazol-2-yl)pyrimidin-4-yl)amino)-5-(hydroxymethyl)cyclopentane-1,2-diol]
  IC50: 409 nM

## OC[C@H]1C[C@@H](Nc2nc(NC3COC3)ncc2-c2nc3ccccc3s2)[C@H](O)[C@@H]1O [Example 12, (1R,2S,3R,5R)-3-((5-(benzo[d]thiazol-2-yl)-2-(oxetan-3-ylamino)pyrimidin-4-yl)amino)-5-(hydroxymethyl)cyclopentane-1,2-diol]
  IC50: 236 nM

## OC[C@H]1C[C@@H](Nc2nc(Nc3cccc(F)c3)ncc2-c2nc3ccccc3s2)[C@H](O)[C@@H]1O [Example 13, (1R,2S,3R,5R)-3-((5-(benzo[d]thiazol-2-yl)-2-((3-fluorophenyl)amino)pyrimidin-4-yl)amino)-5-(hydroxymethyl)cyclopentane-1,2-diol]
  IC50: 62 nM

## NC(=O)Cc1cccc(Nc2ncc(-c3nc4ccccc4s3)c(N[C@@H]3C[C@H](CO)[C@@H](O)[C@H]3O)n2)c1 [Example 14, 2-(3-((5-(benzo[d]thiazol-2-yl)-4-(((1R,2S,3R,4R)-2,3-dihydroxy-4-(hydroxymethyl)cyclopentyl)amino)pyrimidin-2-yl)amino)phenyl)acetamide]
  IC50: 5.4 nM

## OC[C@H]1C[C@@H](Nc2nc(NCC3CC3)ncc2-c2nc3ccccc3s2)[C@H](O)[C@@H]1O [Example 15, (1R,2S,3R,5R)-3-((5-(benzo[d]thiazol-2-yl)-2-((cyclopropylmethyl)amino)pyrimidin-4-yl)amino)-5-(hydroxymethyl)cyclopentane-1,2-diol]
  IC50: 333 nM

## COCCCNc1ncc(-c2nc3ccccc3s2)c(N[C@@H]2C[C@H](CO)[C@@H](O)[C@H]2O)n1 [Example 16, (1R,2S,3R,5R)-3-((5-(benzo[d]thiazol-2-yl)-2-((3-methoxypropyl)amino)pyrimidin-4-yl)amino)-5-(hydroxymethyl)cyclopentane-1,2-diol]
  IC50: 228 nM

## OC[C@H]1C[C@@H](Nc2nc(NC3CCOCC3)ncc2-c2nc3ccccc3s2)[C@H](O)[C@@H]1O [Example 17, (1R,2S,3R,5R)-3-((5-(benzo[d]thiazol-2-yl)-2-((tetrahydro-2H-pyran-4-yl)amino)pyrimidin-4-yl)amino)-5-(hydroxymethyl)cyclopentane-1,2-diol]
  IC50: 1080 nM

## OC[C@H]1C[C@@H](Nc2nc(NC3CCCCC3)ncc2-c2nc3ccccc3s2)[C@H](O)[C@@H]1O [Example 18, (1R,2S,3R,5R)-3-((5-(benzo[d]thiazol-2-yl)-2-(cyclohexylamino)pyrimidin-4-yl)amino)-5-(hydroxymethyl)cyclopentane-1,2-diol]
  IC50: 3010 nM

## Nc1ncc(-c2ccc3ccccc3n2)c(N[C@@H]2C[C@H](CO)[C@@H](O)[C@H]2O)n1 [Example 19, (1R,2S,3R,5R)-3-((2-amino-5-(quinolin-2-yl)pyrimidin-4-yl)amino)-5-(hydroxymethyl)cyclopentane-1,2-diol]
  IC50: 104 nM

## Nc1ncc(-c2nc3cnccc3s2)c(N[C@@H]2C[C@H](CO)[C@@H](O)[C@H]2O)n1 [Example 20, (1R,2S,3R,5R)-3-((2-amino-5-(thiazolo[4,5-c]pyridin-2-yl)pyrimidin-4-yl)amino)-5-(hydroxymethyl)cyclopentane-1,2-diol]
  IC50: 24 nM

## Nc1ncc(-c2nc3ccncc3s2)c(N[C@@H]2C[C@H](CO)[C@@H](O)[C@H]2O)n1 [Example 21, (1R,2S,3R,5R)-3-((2-amino-5-(thiazolo[5,4-c]pyridin-2-yl)pyrimidin-4-yl)amino)-5-(hydroxymethyl)cyclopentane-1,2-diol]
  IC50: 16 nM

## OC[C@H]1C[C@@H](Nc2nc(Nc3ccccc3O)ncc2-c2nc3ccccc3s2)[C@H](O)[C@@H]1O [Example 22, (1R,2S,3R,5R)-3-((5-(benzo[d]thiazol-2-yl)-2-((2-hydroxyphenyl)amino)pyrimidin-4-yl)amino)-5-(hydroxymethyl)cyclopentane-1,2-diol]
  IC50: 1240 nM

## OC[C@H]1C[C@@H](Nc2nc(Nc3ccc4[nH]ccc4c3)ncc2-c2nc3ccccc3s2)[C@H](O)[C@@H]1O [Example 23, (1R,2S,3R,5R)-3-((2-((1H-indol-5-yl)amino)-5-(benzo[d]thiazol-2-yl)pyrimidin-4-yl)amino)-5-(hydroxymethyl)cyclopentane-1,2-diol]
  IC50: 20 nM

## OC[C@H]1C[C@@H](Nc2nc(Nc3ccc4cc[nH]c4c3)ncc2-c2nc3ccccc3s2)[C@H](O)[C@@H]1O [Example 24, (1R,2S,3R,5R)-3-((2-((1H-indol-6-yl)amino)-5-(benzo[d]thiazol-2-yl)pyrimidin-4-yl)amino)-5-(hydroxymethyl)cyclopentane-1,2-diol]
  IC50: 22 nM

## OC[C@H]1C[C@@H](Nc2nc(Nc3ccncn3)ncc2-c2nc3ccccc3s2)[C@H](O)[C@@H]1O [Example 25, (1R,2S,3R,5R)-3-((5-(benzo[d]thiazol-2-yl)-2-(pyrimidin-4-ylamino)pyrimidin-4-yl)amino)-5-(hydroxymethyl)cyclopentane-1,2-diol]
  IC50: 34 nM
